In ChEMBL document CHEMBL4602676, “Discovery and Development of 3-(6-Chloropyridine-3-yloxymethyl)-2-azabicyclo[3.1.0]hexane Hydrochloride (SUVN-911): A Novel, Potent, Selective, and Orally Active Neuronal Nicotinic Acetylcholine α4β2 Receptor Antagonist for the Treatment of Depression” (J Med Chem, 2020):

How the values were obtained:
[1] = biological target: Neuronal acetylcholine receptor; alpha4/beta2 (Homo sapiens, UniProt P17787+P43681); experiment: Displacement of [3H]cytisine from human alpha4beta2 nAChR expressed in CHOK1 cell membrane by microbeta scintillation counting method; type: cell membranes, CHO-K1
[2] = biological target: Neuronal acetylcholine receptor; alpha3/beta4 (Homo sapiens, UniProt P30926+P32297); experiment: Displacement of [3H]epibatidine from human alpha3beta4 nAChR expressed in IMR32 cell membrane by microbeta scintillation counting method; type: cell membranes, IMR-32
[3] = Metabolic stability in human liver microsomes assessed as compound metabolism incubated for 30 mins in presence of NADPH by LC-MS/MS analysis; type: ADME, Microsome; details: read-out: Drug metabolism
[4] = Metabolic stability in rat liver microsomes assessed as compound metabolism incubated for 30 mins in presence of NADPH by LC-MS/MS analysis; type: ADME, Microsome; details: read-out: Drug metabolism
[5] = Oral bioavailability in Wistar rat at 10 ml/kg measured upto 24 hrs by LC-MS/MS analysis; type: ADME, organism-based; details: in vivo
[6] = Cmax in Wistar rat at 10 ml/kg, po or 2 ml/kg, iv measured upto 24 hrs by LC-MS/MS analysis; type: ADME, organism-based; details: in vivo
[7] = AUC in Wistar rat at 10 ml/kg, po or 2 ml/kg, iv measured upto 24 hrs by LC-MS/MS analysis; type: ADME, organism-based; details: in vivo
[8] = Half life in Wistar rat at 10 ml/kg, po or 2 ml/kg, iv measured upto 24 hrs by LC-MS/MS analysis; type: ADME, organism-based; details: in vivo
[9] = Ratio of drug level in brain to plasma in Wistar rat at 10 ml/kg, po or 2 ml/kg, iv measured upto 24 hrs by LC-MS/MS analysis; type: ADME, organism-based; details: brain and plasma, read-out: BPR
Cytochrome P450 2D6 = Cytochrome P450 2D6 (Homo sapiens, UniProt P10635); experiment: Inhibition of CYP2D6 in human liver microsomes using dextromethorphan as substrate incubated for 12 min in presence of NADPH by LC-MS/MS analysis; type: ADME
Cytochrome P450 3A4 = Cytochrome P450 3A4 (Homo sapiens, UniProt P08684); experiment: Inhibition of CYP3A4 in human liver microsomes using midazolam as substrate incubated for 2 min in presence of NADPH by LC-MS/MS analysis; type: ADME
Rattus norvegicus [10] = experiment: Antidepressant activity in Wistar rat assessed as reduction in immobility at 1 mg/kg, po administrated for 3 days and measured for 5 mins by forced swim test relative to control; type: functional; parameters: scale not given: the % may be the effect or the level left
Rattus norvegicus [11] = experiment: Antidepressant activity in Wistar rat assessed as reduction in immobility at 3 mg/kg, po administrated for 3 days and measured for 5 mins by forced swim test relative to control; type: functional; parameters: scale not given: the % may be the effect or the level left
Rattus norvegicus [12] = experiment: Antidepressant activity in Wistar rat assessed as reduction in immobility at 10 mg/kg, po administrated for 3 days and measured for 5 mins by forced swim test relative to control; type: functional; parameters: scale not given: the % may be the effect or the level left
Rattus norvegicus [13] = experiment: Antidepressant activity in Wistar rat assessed as immobility time at 45 mg/kg, ip measured for 5 mins by forced swim test (reference value: 271.9 +/- 7.2 sec); type: functional
Rattus norvegicus [14] = experiment: Antidepressant activity in Wistar rat assessed as immobility time at 3.0 mg/kg, po measured for 5 mins by forced swim test (reference value: 241.9 to 281.6 sec); type: functional
Rattus norvegicus [15] = experiment: Antidepressant activity in Wistar rat assessed as immobility time at 10.0 mg/kg, po measured for 5 mins by forced swim test (reference value: 241.9 to 281.6 sec); type: functional

Cytochrome P450 2D6, sequence (P10635 whole entry): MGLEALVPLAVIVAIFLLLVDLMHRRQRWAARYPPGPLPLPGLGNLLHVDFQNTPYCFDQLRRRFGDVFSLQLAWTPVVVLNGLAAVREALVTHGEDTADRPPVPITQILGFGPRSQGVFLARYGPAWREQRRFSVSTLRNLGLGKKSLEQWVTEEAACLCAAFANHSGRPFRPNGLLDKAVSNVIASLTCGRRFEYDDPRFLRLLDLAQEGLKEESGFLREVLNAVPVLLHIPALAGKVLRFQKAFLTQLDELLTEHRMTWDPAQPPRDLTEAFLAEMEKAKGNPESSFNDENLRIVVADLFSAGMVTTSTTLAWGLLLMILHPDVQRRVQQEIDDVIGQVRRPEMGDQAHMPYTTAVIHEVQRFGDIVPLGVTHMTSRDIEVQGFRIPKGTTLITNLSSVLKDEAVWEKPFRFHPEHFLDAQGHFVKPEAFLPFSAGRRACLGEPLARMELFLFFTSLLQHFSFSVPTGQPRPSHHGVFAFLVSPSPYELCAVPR
Cytochrome P450 3A4, sequence (P08684 whole entry): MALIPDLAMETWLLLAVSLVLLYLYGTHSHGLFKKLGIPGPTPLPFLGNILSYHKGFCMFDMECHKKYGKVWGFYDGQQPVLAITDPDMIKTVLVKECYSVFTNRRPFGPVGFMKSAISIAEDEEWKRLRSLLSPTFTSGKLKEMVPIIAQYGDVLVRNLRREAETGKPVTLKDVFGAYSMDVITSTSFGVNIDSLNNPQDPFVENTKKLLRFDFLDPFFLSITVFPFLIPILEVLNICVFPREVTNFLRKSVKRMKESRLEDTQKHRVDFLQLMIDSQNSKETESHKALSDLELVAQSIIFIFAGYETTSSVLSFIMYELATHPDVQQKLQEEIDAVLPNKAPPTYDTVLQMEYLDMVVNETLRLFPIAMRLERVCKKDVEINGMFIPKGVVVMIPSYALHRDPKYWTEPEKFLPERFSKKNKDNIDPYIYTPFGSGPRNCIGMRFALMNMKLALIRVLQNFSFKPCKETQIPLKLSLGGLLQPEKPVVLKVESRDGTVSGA
Neuronal acetylcholine receptor; alpha4/beta2, sequence (P17787 whole entry): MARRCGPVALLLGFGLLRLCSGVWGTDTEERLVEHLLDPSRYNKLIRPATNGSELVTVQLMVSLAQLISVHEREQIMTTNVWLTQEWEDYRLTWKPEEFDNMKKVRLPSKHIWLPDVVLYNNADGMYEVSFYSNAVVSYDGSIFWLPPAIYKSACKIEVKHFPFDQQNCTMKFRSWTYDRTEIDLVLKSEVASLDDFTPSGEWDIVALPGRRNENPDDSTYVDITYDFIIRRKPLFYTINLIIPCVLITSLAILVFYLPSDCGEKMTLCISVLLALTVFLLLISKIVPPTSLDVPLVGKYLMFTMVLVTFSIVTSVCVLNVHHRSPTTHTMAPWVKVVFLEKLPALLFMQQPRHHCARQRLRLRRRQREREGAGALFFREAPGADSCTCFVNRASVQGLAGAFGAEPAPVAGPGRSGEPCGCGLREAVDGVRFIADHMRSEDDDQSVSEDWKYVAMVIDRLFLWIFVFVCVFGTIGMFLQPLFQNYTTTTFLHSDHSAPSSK
Neuronal acetylcholine receptor; alpha4/beta2, sequence (P43681 whole entry): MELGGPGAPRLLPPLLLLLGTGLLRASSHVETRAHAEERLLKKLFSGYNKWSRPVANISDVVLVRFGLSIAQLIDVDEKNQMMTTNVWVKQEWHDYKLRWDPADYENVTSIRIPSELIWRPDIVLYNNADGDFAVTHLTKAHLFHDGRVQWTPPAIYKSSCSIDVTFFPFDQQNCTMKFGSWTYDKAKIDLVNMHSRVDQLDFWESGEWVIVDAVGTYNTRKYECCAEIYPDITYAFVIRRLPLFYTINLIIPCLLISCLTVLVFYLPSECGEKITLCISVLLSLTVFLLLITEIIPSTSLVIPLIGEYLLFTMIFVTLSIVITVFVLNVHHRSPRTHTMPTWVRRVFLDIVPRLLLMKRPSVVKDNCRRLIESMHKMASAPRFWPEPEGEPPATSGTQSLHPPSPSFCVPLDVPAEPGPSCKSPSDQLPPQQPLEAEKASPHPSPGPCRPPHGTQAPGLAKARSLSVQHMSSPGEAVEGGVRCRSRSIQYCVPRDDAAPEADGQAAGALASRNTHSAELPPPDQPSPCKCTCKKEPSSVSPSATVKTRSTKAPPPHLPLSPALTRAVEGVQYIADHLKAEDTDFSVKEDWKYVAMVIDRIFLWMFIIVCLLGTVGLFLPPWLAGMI
Neuronal acetylcholine receptor; alpha3/beta4, sequence (P30926 whole entry): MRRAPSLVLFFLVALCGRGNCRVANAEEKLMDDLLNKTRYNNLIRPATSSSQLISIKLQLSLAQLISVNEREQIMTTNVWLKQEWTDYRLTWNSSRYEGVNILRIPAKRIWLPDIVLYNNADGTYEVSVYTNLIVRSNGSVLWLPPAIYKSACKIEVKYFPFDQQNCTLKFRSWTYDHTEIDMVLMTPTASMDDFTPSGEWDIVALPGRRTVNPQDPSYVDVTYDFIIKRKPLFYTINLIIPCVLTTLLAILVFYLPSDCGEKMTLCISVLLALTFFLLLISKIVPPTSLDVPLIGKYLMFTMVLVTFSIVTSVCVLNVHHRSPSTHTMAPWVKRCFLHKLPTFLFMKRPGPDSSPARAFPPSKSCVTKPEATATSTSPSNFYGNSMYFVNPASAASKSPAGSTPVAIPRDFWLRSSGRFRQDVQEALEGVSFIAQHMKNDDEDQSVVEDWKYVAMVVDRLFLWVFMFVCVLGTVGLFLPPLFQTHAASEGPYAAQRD
Neuronal acetylcholine receptor; alpha3/beta4, sequence (P32297 whole entry): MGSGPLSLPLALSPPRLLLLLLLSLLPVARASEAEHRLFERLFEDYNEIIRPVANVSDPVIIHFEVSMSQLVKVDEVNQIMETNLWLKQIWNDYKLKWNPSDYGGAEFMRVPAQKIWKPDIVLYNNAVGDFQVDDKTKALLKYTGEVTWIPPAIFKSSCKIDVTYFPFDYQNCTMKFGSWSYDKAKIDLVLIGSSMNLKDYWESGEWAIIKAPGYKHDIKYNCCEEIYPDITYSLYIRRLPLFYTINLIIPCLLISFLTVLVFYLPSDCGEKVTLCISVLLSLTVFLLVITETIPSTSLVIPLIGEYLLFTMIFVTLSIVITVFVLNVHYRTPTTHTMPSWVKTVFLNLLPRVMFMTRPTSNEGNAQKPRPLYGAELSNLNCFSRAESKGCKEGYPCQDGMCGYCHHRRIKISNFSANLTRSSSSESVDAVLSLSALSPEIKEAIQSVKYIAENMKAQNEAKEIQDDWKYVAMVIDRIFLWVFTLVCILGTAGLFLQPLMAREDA

SMILES: Cl.Clc1ncccc1OC[C@@H]1C[C@H]2C[C@H]2N1
- Ki [1]: 0.0175 µM
- Ki [2]: > 10 µM
- metabolised at 0.5 h [3]: 29.5%
- metabolised at 0.5 h [4]: 14.9%
- bioavailability [5]: 54%
- Cmax [6]: 921 ng/mL
- AUC at 24 h [7]: 2160 ng·h/mL
- half-life [8]: 2.15 h
- Kp at 24 h [9]: 3.6
- IC50 (Cytochrome P450 2D6): > 42 µM
- IC50 (Cytochrome P450 3A4): > 45 µM
- Activity (Rattus norvegicus [10]): 10%
- Activity (Rattus norvegicus [11]): 24.7%
- Activity (Rattus norvegicus [12]): 15.8%

SMILES: Cl.c1cncc(OC[C@@H]2C[C@@H]3C[C@@H]3N2)c1
- Ki [1]: 1.34 µM
- Ki [2]: 0.558 µM
- metabolised at 0.5 h [3]: 2.6%
- metabolised at 0.5 h [4]: 3.9%
- bioavailability [5]: 87%
- Cmax [6]: 1500 ng/mL
- AUC at 24 h [7]: 2710 ng·h/mL
- half-life [8]: 1.08 h
- Kp at 24 h [9]: 3.07
- IC50 (Cytochrome P450 2D6): 30.2 µM
- IC50 (Cytochrome P450 3A4): 31.9 µM

SMILES: CN(C)CCCN1c2ccccc2CCc2ccccc21 [IMIPRAMINE]
- Time (Rattus norvegicus [13]): 176.5 s

SMILES: Cl.Clc1ccc(OC[C@@H]2CC[C@H]3C[C@H]3N2)cn1
- Ki [1]: 0.0205 µM
- Ki [2]: > 10 µM
- metabolised at 0.5 h [3]: 98.9%
- metabolised at 0.5 h [4]: 72.8%
- bioavailability [5]: 48%
- Cmax [6]: 3340 ng/mL
- AUC at 24 h [7]: 4480 ng·h/mL
- half-life [8]: 0.68 h
- Kp at 24 h [9]: 0.16
- IC50 (Cytochrome P450 2D6): 79 µM
- IC50 (Cytochrome P450 3A4): > 45 µM
- Time (Rattus norvegicus [14]): 238.6 s
- Time (Rattus norvegicus [15]): 264.9 s

SMILES: Clc1ccc(OC[C@H]2C[C@H]3C[C@H]3N2)cn1
- Ki [1]: 0.329 µM
- Ki [2]: 0.525 µM
- metabolised at 0.5 h [3]: 18.3%
- metabolised at 0.5 h [4]: 69.6%
- IC50 (Cytochrome P450 2D6): 32.1 µM
- IC50 (Cytochrome P450 3A4): > 45 µM

SMILES: Cc1ncccc1OC[C@@H]1C[C@H]2C[C@H]2N1.Cl
- Ki [1]: > 10 µM
- Time (Rattus norvegicus [14]): 204.8 s
- Time (Rattus norvegicus [15]): 198.8 s

SMILES: Cl.Clc1ccc(OC[C@@H]2C[C@@H]3C[C@@H]3N2)cn1
- Ki [1]: 0.0064 µM
- Ki [2]: 1.02 µM
- metabolised at 0.5 h [3]: 13.6%
- metabolised at 0.5 h [4]: 36%
- bioavailability [5]: 66%
- Cmax [6]: 638 ng/mL
- AUC at 24 h [7]: 1620 ng·h/mL
- half-life [8]: 2.73 h
- Kp at 24 h [9]: 2.14
- IC50 (Cytochrome P450 2D6): > 45 µM
- IC50 (Cytochrome P450 3A4): > 45 µM

SMILES: Cl.Clc1cncc(OC[C@@H]2C[C@H]3C[C@H]3N2)c1
- Ki [1]: 0.00019 µM
- Ki [2]: > 10 µM
- metabolised at 0.5 h [3]: 40.7%
- metabolised at 0.5 h [4]: 40.4%
- bioavailability [5]: 50%
- Cmax [6]: 949 ng/mL
- AUC at 24 h [7]: 1190 ng·h/mL
- half-life [8]: 1.07 h
- Kp at 24 h [9]: 3.79
- IC50 (Cytochrome P450 2D6): > 45 µM
- IC50 (Cytochrome P450 3A4): > 45 µM
- Time (Rattus norvegicus [14]): 249.9 s
- Time (Rattus norvegicus [15]): 241.7 s

SMILES: Clc1cncc(OC[C@H]2NC[C@@H]3C[C@@H]32)c1
- Ki [1]: 0.0002 µM
- Ki [2]: 0.0082 µM
- metabolised at 0.5 h [3]: 6.04%
- metabolised at 0.5 h [4]: 12.1%
- IC50 (Cytochrome P450 2D6): > 45 µM
- IC50 (Cytochrome P450 3A4): > 45 µM

SMILES: Cl.Clc1ccc(OC[C@H]2C[C@@H]3C[C@@H]3N2)cn1
- Ki [1]: 0.039 µM
- Ki [2]: 6.01 µM
- metabolised at 0.5 h [3]: 42.2%
- metabolised at 0.5 h [4]: 26.2%
- bioavailability [5]: 35%
- Cmax [6]: 1190 ng/mL
- AUC at 24 h [7]: 1770 ng·h/mL
- half-life [8]: 1.6 h
- Kp at 24 h [9]: 3.83
- IC50 (Cytochrome P450 2D6): 17.1 µM
- IC50 (Cytochrome P450 3A4): > 45 µM
- Time (Rattus norvegicus [14]): 256.8 s
- Time (Rattus norvegicus [15]): 279 s

SMILES: c1cncc(OC[C@H]2NC[C@@H]3C[C@@H]32)c1
- Ki [1]: 0.00014 µM
- Ki [2]: 0.0264 µM
- metabolised at 0.5 h [3]: 6.7%
- metabolised at 0.5 h [4]: 6.2%
- IC50 (Cytochrome P450 2D6): > 45 µM
- IC50 (Cytochrome P450 3A4): 21.1 µM

SMILES: Cc1ncccc1OC[C@@H]1CCCN1 [POZANICLINE]
- Ki [2]: > 10 µM

SMILES: Cl.c1cncc(OC[C@@H]2C[C@H]3C[C@H]3N2)c1
- Ki [1]: 0.0079 µM
- Ki [2]: > 10 µM
- metabolised at 0.5 h [3]: 12.1%
- metabolised at 0.5 h [4]: 17.9%
- bioavailability [5]: 92%
- Cmax [6]: 7610 ng/mL
- AUC at 24 h [7]: 10900 ng·h/mL
- half-life [8]: 4.19 h
- Kp at 24 h [9]: 3.8
- IC50 (Cytochrome P450 2D6): 26.2 µM
- IC50 (Cytochrome P450 3A4): > 45 µM
- Time (Rattus norvegicus [14]): 231 s
- Time (Rattus norvegicus [15]): 210.4 s

SMILES: Cl.c1cncc(OC[C@@H]2CC[C@H]3C[C@H]3N2)c1
- Ki [1]: 0.0114 µM
- Ki [2]: 0.0684 µM
- metabolised at 0.5 h [3]: 53.1%
- metabolised at 0.5 h [4]: 17%
- Cmax [6]: 665 ng/mL
- half-life [8]: 0.01 h
- Kp at 24 h [9]: 0.32
- IC50 (Cytochrome P450 2D6): > 45 µM
- IC50 (Cytochrome P450 3A4): > 45 µM

SMILES: c1cncc(N2CCC3(CCCN3)C2)c1 (stereo not drawn) [TC-2216]
- Ki [1]: 0.0186 µM
- Ki [2]: > 10 µM
- Time (Rattus norvegicus [14]): 249.1 s
- Time (Rattus norvegicus [15]): 183.9 s

SMILES: Cl.Fc1ccc(OC[C@@H]2C[C@H]3C[C@H]3N2)cn1
- Ki [1]: 0.0039 µM
- Ki [2]: > 10 µM
- metabolised at 0.5 h [3]: 10.7%
- metabolised at 0.5 h [4]: 5.1%
- bioavailability [5]: 96%
- Cmax [6]: 3760 ng/mL
- AUC at 24 h [7]: 15600 ng·h/mL
- half-life [8]: 4.02 h
- Kp at 24 h [9]: 2.38
- IC50 (Cytochrome P450 2D6): > 45 µM
- IC50 (Cytochrome P450 3A4): > 45 µM
- Time (Rattus norvegicus [14]): 259.6 s
- Time (Rattus norvegicus [15]): 263.5 s

SMILES: Clc1cncc(OCC[C@@H]2C[C@H]3C[C@H]3N2)c1
- Ki [1]: 0.395 µM
